According to ChEMBL document CHEMBL5126642, “Triazine-Based Covalent DNA-Encoded Libraries for Discovery of Covalent Inhibitors of Target Proteins” (ACS Med Chem Lett, 2022):

Assays:
[1] = target: Peptidyl-prolyl cis-trans isomerase NIMA-interacting 1 (Homo sapiens, UniProt Q13526); assay: Inhibition of GST-tagged Pin1 (unknown origin) using Suc-AEPF-pNA peptide as substrate incubated for 3 hrs
[2] = target: Tyrosine-protein kinase BTK (Homo sapiens, UniProt Q06187); assay: Inhibition of BTK (unknown origin) using TK peptide as substrate incubated for 1 hr in presence of ATP by HTRF assay
Tyrosine-protein kinase BTK, sequence (Q06187 whole entry): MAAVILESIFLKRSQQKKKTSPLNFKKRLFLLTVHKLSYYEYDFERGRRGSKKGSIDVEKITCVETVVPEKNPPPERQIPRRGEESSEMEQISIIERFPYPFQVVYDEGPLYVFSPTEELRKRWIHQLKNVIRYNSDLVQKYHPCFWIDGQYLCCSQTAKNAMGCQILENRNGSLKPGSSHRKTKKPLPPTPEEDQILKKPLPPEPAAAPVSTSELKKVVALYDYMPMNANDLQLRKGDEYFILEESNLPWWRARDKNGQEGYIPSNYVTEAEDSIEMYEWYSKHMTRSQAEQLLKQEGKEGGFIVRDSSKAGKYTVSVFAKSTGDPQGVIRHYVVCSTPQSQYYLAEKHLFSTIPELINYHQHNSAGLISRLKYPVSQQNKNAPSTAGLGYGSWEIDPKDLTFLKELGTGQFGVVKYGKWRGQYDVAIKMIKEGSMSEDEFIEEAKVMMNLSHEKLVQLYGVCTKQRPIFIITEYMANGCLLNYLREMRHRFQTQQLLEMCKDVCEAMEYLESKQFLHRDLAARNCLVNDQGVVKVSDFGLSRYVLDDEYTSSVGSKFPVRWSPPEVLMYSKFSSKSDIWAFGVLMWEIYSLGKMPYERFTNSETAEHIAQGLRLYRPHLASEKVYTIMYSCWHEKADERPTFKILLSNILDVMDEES

[3] = target: T1, Tyrosine-protein kinase JAK3 (Homo sapiens, UniProt P52333); assay: Inhibition of JAK3 (unknown origin) using TK peptide as substrate incubated for 1 hr in presence of ATP by HTRF assay
T1 sequence (P52333 whole entry): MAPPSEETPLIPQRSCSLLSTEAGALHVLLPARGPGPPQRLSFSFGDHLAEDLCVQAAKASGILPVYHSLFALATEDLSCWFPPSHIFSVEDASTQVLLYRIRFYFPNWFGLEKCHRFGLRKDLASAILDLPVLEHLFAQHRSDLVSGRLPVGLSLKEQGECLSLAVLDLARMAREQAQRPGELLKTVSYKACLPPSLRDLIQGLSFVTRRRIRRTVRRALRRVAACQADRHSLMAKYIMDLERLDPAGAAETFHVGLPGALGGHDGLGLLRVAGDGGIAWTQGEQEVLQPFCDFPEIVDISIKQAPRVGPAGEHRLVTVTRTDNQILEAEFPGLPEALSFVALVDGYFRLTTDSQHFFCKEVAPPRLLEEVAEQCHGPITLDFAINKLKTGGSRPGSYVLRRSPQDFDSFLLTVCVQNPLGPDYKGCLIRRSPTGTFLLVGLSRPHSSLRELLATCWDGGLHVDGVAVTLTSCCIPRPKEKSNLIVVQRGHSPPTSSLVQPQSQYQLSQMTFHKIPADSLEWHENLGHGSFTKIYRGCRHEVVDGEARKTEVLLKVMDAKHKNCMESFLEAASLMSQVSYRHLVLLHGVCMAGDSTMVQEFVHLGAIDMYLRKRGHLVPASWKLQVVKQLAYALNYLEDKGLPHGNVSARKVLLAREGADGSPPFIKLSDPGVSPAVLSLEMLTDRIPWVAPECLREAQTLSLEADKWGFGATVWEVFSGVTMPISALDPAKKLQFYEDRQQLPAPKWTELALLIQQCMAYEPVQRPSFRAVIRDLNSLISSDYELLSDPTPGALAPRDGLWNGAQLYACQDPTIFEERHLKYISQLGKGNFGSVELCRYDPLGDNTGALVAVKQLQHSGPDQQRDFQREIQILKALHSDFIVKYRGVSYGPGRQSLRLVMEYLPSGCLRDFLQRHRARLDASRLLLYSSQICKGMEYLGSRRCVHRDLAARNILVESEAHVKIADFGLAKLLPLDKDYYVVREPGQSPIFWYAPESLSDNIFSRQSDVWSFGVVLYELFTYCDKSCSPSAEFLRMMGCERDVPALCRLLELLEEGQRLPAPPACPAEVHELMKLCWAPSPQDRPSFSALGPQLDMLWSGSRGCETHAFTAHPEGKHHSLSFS

Peptidyl-prolyl cis-trans isomerase NIMA-interacting 1, sequence (Q13526 whole entry): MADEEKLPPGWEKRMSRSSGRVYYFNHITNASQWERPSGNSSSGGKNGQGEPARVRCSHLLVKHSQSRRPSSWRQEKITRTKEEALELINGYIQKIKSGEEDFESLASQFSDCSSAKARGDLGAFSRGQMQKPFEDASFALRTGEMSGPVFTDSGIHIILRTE

## CNc1nc(NC(c2ccccc2)c2cccc(S(C)(=O)=O)c2)nc(N2CCN(C(=O)CCl)CC2)n1 (stereo not given)
[1]
  IC50: 3200 nM

## CNc1nc(NCc2cccc(NC(=O)CCl)c2)nc(Nc2cc(C(C)(C)C)[nH]n2)n1
[2]
  IC50: 1900 nM
[3]
  IC50: 8.97 nM

## C=CC(=O)Nc1cccc(CNc2nc(NC)nc(Nc3cc(C(C)(C)C)[nH]n3)n2)c1
[2]
  IC50: 98.3 nM
[3]
  IC50: 6.16 nM

## CNc1nc(Nc2ccc3cn[nH]c3c2)nc(N2CC3CC2CN3C(=O)CCl)n1 (stereo not given)
[1]
  IC50: 1690 nM

## CNc1nc(NCC(NC(=O)CCl)c2ccccc2)nc(Nc2cc(C(C)(C)C)[nH]n2)n1 (stereo not given)
[2]
  IC50: 638 nM
[3]
  IC50: 32.6 nM

## C=CC(=O)N1CC2CC1CN2c1nc(NC)nc(Nc2cc[nH]n2)n1 (stereo not given)
[2]
  IC50: 16.1 nM
[3]
  IC50: 699 nM
